Here are results for 26 molecules from patent publication US9067935B2 (Janssen Pharmaceutica, NV, priority 2010, dated 2015).

Molecules are shown by their SMILES. Several values for one entry are separate records, joined by “and”; a condition that tells them apart may be missing. Identical values can stand only once.

Chain of canine TRPM8 (Q1A7N1 1-1104): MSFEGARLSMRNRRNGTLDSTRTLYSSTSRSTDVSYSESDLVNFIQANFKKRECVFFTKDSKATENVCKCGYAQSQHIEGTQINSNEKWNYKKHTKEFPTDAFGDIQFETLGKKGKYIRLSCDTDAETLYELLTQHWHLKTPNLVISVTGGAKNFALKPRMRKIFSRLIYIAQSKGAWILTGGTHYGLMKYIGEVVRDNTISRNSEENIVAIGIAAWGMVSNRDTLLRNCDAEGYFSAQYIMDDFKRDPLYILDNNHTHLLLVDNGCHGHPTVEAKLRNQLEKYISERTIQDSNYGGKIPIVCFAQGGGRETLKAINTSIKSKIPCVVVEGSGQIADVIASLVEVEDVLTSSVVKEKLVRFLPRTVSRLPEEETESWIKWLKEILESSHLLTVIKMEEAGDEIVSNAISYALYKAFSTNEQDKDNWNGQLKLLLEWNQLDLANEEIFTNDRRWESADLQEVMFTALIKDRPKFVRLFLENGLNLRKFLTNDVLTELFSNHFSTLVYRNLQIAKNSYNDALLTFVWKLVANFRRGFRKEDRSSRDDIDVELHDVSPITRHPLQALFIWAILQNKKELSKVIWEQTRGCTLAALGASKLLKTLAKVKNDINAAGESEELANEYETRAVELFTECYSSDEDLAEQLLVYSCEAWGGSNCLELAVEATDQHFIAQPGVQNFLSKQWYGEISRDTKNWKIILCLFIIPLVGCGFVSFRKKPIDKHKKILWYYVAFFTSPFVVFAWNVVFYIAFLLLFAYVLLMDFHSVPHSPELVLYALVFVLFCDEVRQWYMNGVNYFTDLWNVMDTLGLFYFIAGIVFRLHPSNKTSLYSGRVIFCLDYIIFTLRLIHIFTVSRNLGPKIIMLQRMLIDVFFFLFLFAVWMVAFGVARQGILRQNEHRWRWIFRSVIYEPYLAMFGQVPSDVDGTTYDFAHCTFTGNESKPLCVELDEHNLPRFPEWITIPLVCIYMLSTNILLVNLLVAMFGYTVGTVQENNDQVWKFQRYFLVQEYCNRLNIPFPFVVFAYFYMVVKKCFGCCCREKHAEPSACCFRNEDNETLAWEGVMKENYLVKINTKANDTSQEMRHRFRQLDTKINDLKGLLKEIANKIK

The first assay addresses canine TRPM8 (Canis lupus familiaris, UniProt Q1A7N1). Nature of the assay: In Vitro Canine TRPM8 Functional Assay (intracellular Ca2+ fluorescence, icilin challenge). Type of assay: cell-based. The note with it: HEK293, @ 0.2 μM; HEK293 cells stably expressing canine TRPM8; read-out: % Inh (%) @ 0.2 μM. As to the method: The functional activity of compounds of the formula (I) was determined by measuring changes in intracellular calcium concentration using a Ca^2+-sensitive fluorescent dye. The changes in fluorescent signal were monitored by a fluorescence plate reader, either a FLIPR™ (Molecular Devices) or FDSS (Hamamatsu).
At 24 hrs prior to assay, HEK293 cells stably expressing canine TRPM8 were seeded in culture medium in black wall, clear-base poly-D-lysine coated 384-well plates (BD Biosciences, NJ, USA) and grown overnight in 5% CO2 at 37° C. On assay day, growth media was removed and cells were loaded with Calcium 3 Dye (Molecular Devices) for 35 min at 37° C., under 5% CO2 and then for 25 min at room temperature and atmosphere. Subsequently, cells were tested for agonist-induced increases in intracellular Ca^2+ levels using FLIPR™ or FDSS. Cells were challenged with a compound of the Formula (I) (at varying concentrations) and intracellular Ca^2+ was measured for 5 min prior to the addition of icilin to all wells to achieve a final concentration that produces approximately an 80% maximal response. EC50 or IC50 values for compounds of the present invention were determined from eight-point dose-response studies. Curves were generated using the average of quadruplicate wells for each data point.
Consider `Cc1c(N(Cc2ccc(OC(F)(F)F)cc2)S(C)(=O)=O)nc2ccc(F)cn12` [Compound 22], for which the inhibition at 0.2 µM came out at 51%.
For the molecule `Cc1c(N(Cc2ccc(F)c(C(F)(F)F)c2)S(C)(=O)=O)nc2ccc(F)cn12` [Compound 23], the inhibition at 0.2 µM came out at 58%.
Consider `Cc1ccn2c(C)c(N(Cc3ccc(OC(F)(F)F)cc3)S(=O)(=O)c3ccccc3)nc2c1` [Compound 26], for which the inhibition at 0.2 µM was 100%.
Regarding `Cc1ccn2c(C)c(N(Cc3ccc(C(F)(F)F)c(F)c3)S(=O)(=O)c3ccccc3)nc2c1` [Compound 27], the inhibition at 0.2 µM was 100%.
For `Cc1ccn2c(C)c(N(Cc3ccc(F)c(C(F)(F)F)c3)S(=O)(=O)c3ccccc3)nc2c1` [Compound 28], the inhibition at 0.2 µM stood at 100%.
Same read-out and setting: the figure for `O=S(=O)(c1ccccc1)N(Cc1ccc(C(F)(F)F)c(F)c1)c1nc2ccc(Cl)cn2c1Cl` [Compound 29] is 90%.

Still in this assay, the particulars now being: HEK293, read-out: % Inh (%) @ 0.2 μM.
For the molecule `O=C(O)c1ccc(S(=O)(=O)N(Cc2ccc(OC(F)(F)F)cc2)c2nc3ccccn3c2Cl)cc1` [Compound 6], the inhibition at 0.2 µM was 102%.

Staying with this assay, now noted: HEK293 cells stably expressing canine TRPM8; icilin at ~80% maximal response.
In general, IC50 refers to the point on the concentration scale where inhibition reaches its midpoint. Low values mean inhibition by little substance, high ones a need for much substance. Regarding `O=S(=O)(c1ccccc1)N(Cc1ccc(F)c(C(F)(F)F)c1)c1nc2ccccn2c1Cl` [Compound 1], the IC50 turned out to be 3.25 nM.
The molecule `O=S(=O)(c1ccccc1)N(Cc1ccc(OC(F)(F)F)cc1)c1nc2ccccn2c1Cl` [Compound 3] gave an IC50 of 1.8 nM.
On the same count and under the same terms, the figure for `CS(=O)(=O)N(Cc1ccc(OC(F)(F)F)cc1)c1nc2ccccn2c1Br` [Compound 4] is 16.7 nM; for `O=S(=O)(c1ccccc1)N(Cc1ccc(OC(F)(F)F)cc1)c1nc2ccccn2c1Br` [Compound 5] it is 5.3 nM.
In turn, `O=S(=O)(c1ccccc1)N(Cc1ccc(OC(F)(F)F)cc1)c1nc2ccc(Cl)cn2c1Cl` [Compound 7] came in with an IC50 of 29.8 nM.
Molecule `O=S(=O)(c1ccc(F)cc1)N(Cc1ccc(OC(F)(F)F)cc1)c1nc2ccccn2c1Cl` [Compound 9] had an IC50 of 13.6 nM.
For the molecule `O=S(=O)(c1ccc(F)cc1)N(Cc1ccc(F)c(C(F)(F)F)c1)c1nc2ccccn2c1Cl` [Compound 10], the IC50 was 17.4 nM.
For the molecule `Cc1c(N(Cc2ccc(OC(F)(F)F)cc2)S(=O)(=O)c2ccccc2)nc2ccccn12` [Compound 11], the IC50 came out at 5.68 nM. This IC50 is about 3.1-fold lower than that of the molecule before.
On to `O=S(=O)(c1ccccc1)N(Cc1ccc(OC(F)(F)F)cc1)c1cn2ccccc2n1` [Compound 12], for which the midpoint of inhibition, the IC50, lay at 48.7 nM.
Molecule `O=S(=O)(c1ccccc1)N(Cc1ccc(F)c(C(F)(F)F)c1)c1cn2ccccc2n1` [Compound 13] showed an IC50 of 48.9 nM.
The molecule `Cc1c(N(Cc2ccc(OC(F)(F)F)cc2)S(=O)(=O)c2ccccc2)nc2cc(Cl)ccn12` [Compound 14] came in with an IC50 of 20.7 nM.
The molecule `Cc1c(N(Cc2ccc(F)c(C(F)(F)F)c2)S(=O)(=O)c2ccccc2)nc2cc(Cl)ccn12` [Compound 15] returned an IC50 of 16 nM.
In turn, `O=S(=O)(c1ccccc1)N(Cc1ccc(F)cc1)c1nc2ccc(Cl)cn2c1Cl` [Compound 16] came in with an IC50 of 72 nM. This IC50 is about 4.5-fold higher than that of the molecule before.
The molecule `O=S(=O)(c1ccccc1)N(Cc1ccc(F)c(F)c1)c1nc2ccc(Cl)cn2c1Cl` [Compound 18] gave an IC50 of 78.6 nM.
Molecule `Cc1c(N(Cc2ccc(OC(F)(F)F)cc2)S(=O)(=O)c2ccccc2)nc2ccc(F)cn12` [Compound 19] yielded an IC50 of 14.4 nM.
`Cc1c(N(Cc2ccc(F)c(C(F)(F)F)c2)S(=O)(=O)c2ccccc2)nc2ccc(F)cn12` [Compound 20] had an IC50 of 10.1 nM. This IC50 and that of the molecule before are within 1.5-fold of each other.
Turning to `Cc1c(N(Cc2ccc(C(F)(F)F)c(F)c2)S(=O)(=O)c2ccccc2)nc2ccc(F)cn12` [Compound 21], the IC50 was 10.6 nM and 12.4 nM.
`O=S(=O)(c1ccccc1)N(Cc1ccc(C(F)(F)F)c(F)c1)c1cn2ccccc2n1` [Compound 24] displayed a concentration for half-maximal inhibition (IC50) of 13.4 nM.
For the molecule `O=S(=O)(c1ccccc1)N(Cc1ccc(C(F)(F)F)c(F)c1)c1nc2ccccn2c1Br` [Compound 25], the IC50 worked out at 3.49 nM.
`Cc1ccn2c(C)c(N(Cc3ccc(OC(F)(F)F)cc3)S(=O)(=O)c3ccccc3)nc2c1` [Compound 26]: the IC50 worked out at 10.1 nM.
The same measure, in the same setting: the figure for `Cc1ccn2c(C)c(N(Cc3ccc(C(F)(F)F)c(F)c3)S(=O)(=O)c3ccccc3)nc2c1` [Compound 27] is 6.11 nM; for `Cc1ccn2c(C)c(N(Cc3ccc(F)c(C(F)(F)F)c3)S(=O)(=O)c3ccccc3)nc2c1` [Compound 28] it is 8.01 nM; for `O=S(=O)(c1ccccc1)N(Cc1ccc(C(F)(F)F)c(F)c1)c1nc2ccc(Cl)cn2c1Cl` [Compound 29] it is 32.2 nM.
